assay: gradient 5% acetonitrile 3 min, to 50% in 2 min, to 85% in 15 min, held 3 min, 100 µL/min; settings: column: Zorbax Extend-C18 2.1 x 50 mm; eluents: water / acetonitrile, 0.1% formic acid
How it was run: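 Retention times of pure standards were taken from adduct peaks that were selected by computer and manually inspected. Over 3 months, mixtures of ~100 molecules were run by HPLC–quadrupole time-of-flight mass spectrometry in positive and negative ionization mode. The Zorbax Extend-C18 column (2.1 × 50 mm, 1.8 μm) ran at 100 μL/min in water and acetonitrile, each containing 0.1% formic acid, with 40 μL dead volume and 900 μL dwell volume.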

SMILES	RP-LC retention time [s]
N#Cc1cnc2ccc(Cl)cc2c1N1CCC(C(=O)Nc2cccc(C(F)(F)F)c2)CC1	1120
CCn1c(C(=O)NCCCN2CCCC2=O)c(N2CCCC2=O)c2cc(OC)ccc21	677
Cc1nnc(-c2ccc3ccn(CC(=O)N4CCN(c5cccc(C)c5C)CC4)c3c2)o1	997
COC1C(=O)N(c2cccc(F)c2)C12CCN(Cc1cn(C)c3ccccc13)CC2 (stereo unspecified)	751
COc1ccc(NC(=O)CSc2ccc(N3CCCC(C(=O)NC4CC4)C3)nn2)c(OC)c1 (stereo unspecified)	642
Cc1ccc(CNC(=O)CCc2conc2-c2ccccc2)o1	865
CS/C(=C\c1ccc(C(=O)c2ccc(C)cc2)n1C)S(C)=O (stereo unspecified)	1120
CSc1nnc(NC(=O)c2cc(Cl)ccc2Cl)s1	808
CC(C)COC(=O)NCCc1nc2ccccc2[nH]1	556
Cc1cc(-c2csc(S(=O)(=O)N(Cc3cccs3)C3CCCC3)c2)on1	1190
Cc1cccc(NS(=O)(=O)c2cn(CC(C)C)c3ncccc23)c1C	1070
CC1CCCN(CCCNC(=O)c2cc(=O)n3c(nc4ccccc43)s2)C1 (stereo unspecified)	638
O=C(NCCCn1nc(-c2ccc(Cl)cc2)ccc1=O)C1CCCC1	798
Cc1ccn2cc(CC(=O)Nc3ccccc3)nc2c1	588
COCCC1(NC(=O)c2ccsc2)CCN(S(C)(=O)=O)CC1	691
CN(Cc1ccco1)C(=O)C1CCN(S(=O)(=O)c2ccc3c(c2)sc(=O)n3C)CC1	803
CCCn1c(=O)oc2cc(NC(=O)NCC(=O)OCC)ccc21	703
O=C(O)c1cccc2c1C(=O)c1cccc3snc-2c13	804
Cn1cc(CC(=O)NCc2cccc(F)c2)c2cccnc21	669
CC(C)(C)c1csc(-c2csc(S(=O)(=O)NCc3ccc(Cl)cc3)c2)n1	1340
CC(C)c1nnc2n1CCN(C(=O)c1nn(C)c3ccccc13)C2	647

SMILES	RP-LC retention time [s]
CC(C)C(=O)N1CCC(c2nc(CNC(=O)C3CCC3)cs2)CC1	662
CCCn1cc(C(=O)NCc2ccc(N(C)C)cc2)c2cccnc21	630
CCC(C)C(=O)N1CCN(c2ncccc2-c2nnc(C3CC3)o2)CC1 (stereo unspecified)	733
Cc1nc(-c2cccc(NC(=O)c3ncccn3)c2)cs1	665
CCCC(C)c1nnc(NC(=O)C2CCN(C(=O)c3cccc(F)c3)CC2)s1 (stereo unspecified)	831
Cc1cc(=O)n(CC(=O)Nc2ccc3c(c2)OCCO3)c(N2CCOCC2)n1	634
Cc1ccc(S(=O)(=O)N2CCCC2)cc1-c1nnc(-c2ccccc2Cl)o1	1070
Cc1cc2n(n1)CCCN2C(=O)CCC(=O)N1CCN(c2ccc(Cl)cc2)CC1	758
CCOC(=O)CNC(=O)N1CCCC1c1ccc(F)cc1 (stereo unspecified)	760
Cc1cc2c(c(=O)n(-c3ccccc3)c(=O)n2CC(=O)Nc2cccc(F)c2)n1C	837
Cc1cc(NC(=O)Nc2ccc3c(ccn3C)c2)sn1	736
Cc1cccc(CNC(=O)C2CCc3nc(N4CCOCC4)ncc3C2)c1 (stereo unspecified)	723
Cc1ccc(NC(=O)CSc2nnc3c4cc(-c5ccc(F)cc5)nn4ccn23)cc1Cl	1010
CCc1c(C2CCN(C(=O)c3ccc4c(c3)OCO4)CC2)noc1N	696
Cc1ccc2ncn(C3CCN(S(=O)(=O)c4ccc(F)c(F)c4)CC3)c(=O)c2c1	946
CN1CCCC1c1nc(C2CN(C(=O)c3cccn3C)C2)no1 (stereo unspecified)	548
Cc1cc(C)n(-c2nc(-c3ccc(Cl)cc3)cs2)n1	1420
CC(C)NC(=O)c1c2c(cn(-c3ccc(F)cc3)c1=O)C(=O)CC(C)(C)C2	869
COCCOCc1nc(C2CCN(S(=O)(=O)c3cc(F)ccc3F)C2)no1 (stereo unspecified)	817
COc1ccc(S(=O)(=O)N2CCc3nn(CC4CC4)c(=O)n3CC2)cc1	744
Cc1nc(-c2ccc(F)cc2)sc1C(=O)N1CCC(C(C)C(=O)NC2CC2)CC1 (stereo unspecified)	747

SMILES	RP-LC retention time [s]
CCc1noc2nc(C)nc(N3CCCC(C(=O)NCCN4CCCC4)C3)c12 (stereo unspecified)	597
O=c1c2cnc3nc(-c4ccc(Cl)cc4)nn3c2ccn1CCO	716
CN(C)CCCNC(=O)c1ccc2c(c1)nc1n2CCN(C2CCCCC2)C1=O	605
CC(C)c1ccc(S(=O)(=O)N2CCCC2c2nc(-c3cccc(F)c3)no2)cc1 (stereo unspecified)	1270
CC1CN(C(=O)CCC(=O)NCCCN2CCC(N3CCCCC3)CC2)c2ccccc2O1 (stereo unspecified)	573
COc1cccc(-c2nc3cnccn3c2NCCC(=O)NC2CCCCC2)c1	710
CCCS(=O)(=O)c1nc2ccc(NS(=O)(=O)c3ccc(F)cc3Cl)cc2s1	973
COCCN1C(=O)c2cccn2CC1CNC(=O)c1ccc(Cc2c(C)noc2C)o1 (stereo unspecified)	679
CN1C(=O)CCc2cc(NS(=O)(=O)c3ccc(F)c(F)c3)ccc21	781
CN(C)C(=O)c1ccc2c(c1)N(CC(=O)NCCC1=CCCCC1)C(=O)C1CCCCN21 (stereo unspecified)	830
CCc1csc(-c2ccc(N3CCN(C(=O)C4COc5ccccc5O4)CC3)nc2)n1 (stereo unspecified)	1030
CCCN(CC1CCOC1)C(=O)Nc1cc(F)ccc1F (stereo unspecified)	844
Cn1nc(C(=O)N2CCCC2)c2c1CCN(C(=O)Nc1ccccc1)C2	704
Cc1cc2ncn(CC3CCN(C(=O)c4ccsc4)CC3)c2cc1C	583
C=CCSc1n[nH]c(-c2cccs2)n1	792
CC1=C(c2ccc(F)cc2)S(=O)(=O)N=C1N1CCC(C(=O)NC(C)C)CC1	741
CCC(=O)N1c2ccc(S(=O)(=O)CCC(=O)N3CCN(c4ccccc4F)CC3)cc2CC1C (stereo unspecified)	894
O=C([C@@H]1C[C@H](F)CN1C(=O)c1cccs1)N1CCCCC1	662
C=CCn1c(=O)c2ccccc2n(Cc2nc(-c3ccc(OC(F)(F)F)cc3)no2)c1=O	1140

Results, then the compound that gave them:

RP-LC retention time [s]	SMILES
951	CCOc1ccc(/C=C/c2nn3c(-c4cccnc4)nnc3s2)cc1
1100	COC(=O)c1ccc2c(=O)n(-c3ccc(C)c(F)c3)c(N3CCSCC3)nc2c1
809	CCc1nc2oc3cc(OC)ccc3c(=O)c2c(=O)n1-c1ccc(C)cc1
616	COc1ccc(S(=O)(=O)Nc2cc(C)ccn2)cc1
1310	CCOc1cccc(-c2noc(Cn3ncn4nc(-c5ccc(Br)cc5)cc4c3=O)n2)c1
1000	COC(=O)c1cccc(C(=O)Nc2ccc(Br)cc2F)n1
979	Cc1ccc(C(=O)Nc2c(C(=O)NCc3ccc4c(c3)OCO4)[nH]c3ccc(C)cc23)cc1
761	O=C(c1ccc(OC(F)(F)F)cc1)N1C[C@@H]2C[C@H]1C[C@@H]2NS(=O)(=O)c1cccnc1
806	COc1ccc(C(=O)N2CCc3ccc(C(=O)NCc4cccs4)cc32)cc1
796	CCN1C(=O)c2cccnc2Sc2cc(NC(=O)c3cccs3)ccc21
1000	Cc1noc(C)c1CCNC(=O)c1cc2c(-c3cccs3)nn(-c3ccccc3)c2n1C
790	Cc1noc(-c2ccc(NC(=O)c3cc(=O)c4ccccc4o3)cc2)n1
919	COC(=O)COC(=O)c1cn(-c2ccc(F)cc2)c(=O)c2ccccc12
1200	Cc1nc2cc(-c3noc(Cc4cccs4)n3)ccc2n(C2CCCC2)c1=O
1070	CC(C)c1ccc(S(=O)(=O)N2CCC(C(=O)NCc3csc(-c4ccccc4)n3)CC2)cc1
741	CCOc1ccc(C(=O)NC2CCN(c3cc(-c4ccccc4)[nH]n3)C2)cc1 (stereo unspecified)
618	CN(C)c1ccc(C(CNC(=O)c2cccs2)N(C)C)cc1 (stereo unspecified)
746	COC(=O)c1cccc(NC(=O)C2CCc3nc(N4CCOCC4)ncc3C2)c1 (stereo unspecified)
1080	COc1ccc(-n2nnc(-c3nc(-c4cc(OC)ccc4OC)cs3)c2N)cc1
654	CCN1CCN(C(=O)c2csc(N3CCN(c4ccc(OC)cc4)CC3)n2)CC1
955	COc1ccc(-n2c(=O)n(C)c(=O)c3cc(C(=O)Nc4ccc(F)c(C)c4)cnc32)cc1
748	CN(C)c1ccc(C(=O)N2CCCC2COc2ccc(C(=O)N3CCCC3)cc2)cc1 (stereo unspecified)
1040	CCn1c(=O)c(N2CCC(NC(=O)Nc3cccc(Br)c3)CC2)nc2ccccc21
686	Cc1ccc2nc(C(=O)NCc3ccccc3C)cn2c1
604	CCC(=O)N1CCc2cc(-c3ccc(C(=O)NCCN4CCN(CC)CC4)cc3)ccc21
753	COC(=O)[C@H](Cc1c[nH]c2ccccc12)NC(=O)c1cccc(-n2cnnn2)c1
821	O=C(c1ccco1)N1CCc2nc(OCC3CC3)ccc2C1
707	CCN1CCn2c(nc3cc(C(=O)NCc4ccccc4Br)ccc32)C1=O
658	COCCNC(=O)C1CCC(=O)N(c2ccc(OC)cc2)C1c1ccc(F)cc1 (stereo unspecified)
688	Cn1c(-c2cccc(C(=O)NCc3cccs3)c2)nc2cccnc21
